The record followed here is ChEMBL document CHEMBL1149708, “Novel sulfonamides having dual dopamine D2 and D3 receptor affinity show in vivo antipsychotic efficacy with beneficial cognitive and EPS profile” (Bioorg Med Chem Lett, 2007).

The target in one data set is D(3) dopamine receptor (Rattus norvegicus, UniProt P19020). In words: Displacement of [3H]spiperone from rat dopamine D3 receptor expressed in Sf9 cells.
The target in another data set is D(2) dopamine receptor (Rattus norvegicus, UniProt P61169). Kind of data set: Displacement of [3H]spiperone from dopamine D2 receptor in rat striatal membranes. The class given is cell membranes, Membrane. For orientation: Loss of bound radioactivity is the signal in a displacement assay; it reports binding, not function.
D(2) dopamine receptor, sequence (P61169 whole entry): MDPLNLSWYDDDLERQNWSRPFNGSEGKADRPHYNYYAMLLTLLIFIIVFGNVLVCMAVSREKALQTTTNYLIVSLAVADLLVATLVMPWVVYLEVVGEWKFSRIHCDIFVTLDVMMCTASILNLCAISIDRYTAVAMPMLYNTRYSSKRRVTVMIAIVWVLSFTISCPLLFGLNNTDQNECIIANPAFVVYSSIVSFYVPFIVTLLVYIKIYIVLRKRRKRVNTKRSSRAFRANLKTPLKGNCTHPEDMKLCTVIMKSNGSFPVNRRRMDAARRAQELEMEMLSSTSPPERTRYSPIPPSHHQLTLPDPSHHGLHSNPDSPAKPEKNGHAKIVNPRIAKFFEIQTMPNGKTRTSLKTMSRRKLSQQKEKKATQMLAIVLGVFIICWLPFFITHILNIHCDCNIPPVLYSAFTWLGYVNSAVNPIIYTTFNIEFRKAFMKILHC
Data set [1] deals with Rattus norvegicus. In words: Antipsychotic activity in orally dosed Wistar rat assessed as inhibition of conditioned avoidance response after 1 hr. The class given is functional. To be noted: po.
Data set [2] is described as follows: Cmax in orally dosed rat brain. To be noted: po. Type of data set: ADME, organism-based. More on the design: route oral.
Data set [3] in a line: Tmax in orally dosed rat brain. Type of data set: ADME, organism-based. To be noted: po.
The target of data set [4] is D(2) dopamine receptor (Homo sapiens) (UniProt P14416). In words: Antagonistic activity at human D2 expressed in CHO cells by [35S]GTP-gamma-S binding assay. The class given is functional, cell-based. (In general: GTPγS resists hydrolysis and so accumulates on activated G proteins.)
D(2) dopamine receptor (Homo sapiens), sequence (P14416 whole entry): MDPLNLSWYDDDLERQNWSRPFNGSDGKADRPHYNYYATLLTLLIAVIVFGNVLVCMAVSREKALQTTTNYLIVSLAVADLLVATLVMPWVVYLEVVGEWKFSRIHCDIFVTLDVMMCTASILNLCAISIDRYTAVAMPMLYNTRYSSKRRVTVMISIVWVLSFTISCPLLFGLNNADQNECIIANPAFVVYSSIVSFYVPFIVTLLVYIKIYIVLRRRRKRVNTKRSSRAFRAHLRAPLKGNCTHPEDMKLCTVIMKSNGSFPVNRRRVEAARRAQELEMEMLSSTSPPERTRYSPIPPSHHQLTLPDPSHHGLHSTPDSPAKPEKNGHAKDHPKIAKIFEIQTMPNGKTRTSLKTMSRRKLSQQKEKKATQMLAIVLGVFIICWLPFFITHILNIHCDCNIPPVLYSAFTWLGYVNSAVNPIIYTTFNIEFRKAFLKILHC
The next data set deals with Mus musculus. In words: Antipsychotic activity in orally dosed CD1 mice assessed as inhibition of […] induced climbing behavior. To be noted: CD1, po.
Data set [5] deals with D(3) dopamine receptor (Homo sapiens) (UniProt P35462). In words: Antagonistic activity at human D3 receptor expressed in CHO cells by [35S]GTP-gamma-S binding assay. The class given is functional, cell-based.
D(3) dopamine receptor (Homo sapiens), sequence (P35462 whole entry): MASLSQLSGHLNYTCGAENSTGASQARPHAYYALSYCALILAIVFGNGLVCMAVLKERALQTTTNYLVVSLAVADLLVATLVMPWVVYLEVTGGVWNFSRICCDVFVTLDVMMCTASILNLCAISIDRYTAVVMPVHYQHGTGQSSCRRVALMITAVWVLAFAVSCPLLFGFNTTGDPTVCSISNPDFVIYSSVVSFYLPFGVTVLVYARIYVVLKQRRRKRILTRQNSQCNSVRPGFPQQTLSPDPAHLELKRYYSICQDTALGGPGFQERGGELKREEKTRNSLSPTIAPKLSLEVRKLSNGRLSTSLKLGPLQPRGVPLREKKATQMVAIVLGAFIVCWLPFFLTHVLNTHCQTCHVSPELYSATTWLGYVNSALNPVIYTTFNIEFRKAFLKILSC
Data set [6] can be described thus: Bioavailability in rat at 10 mg/kg. The settings on record: in vivo. Type of data set: ADME, organism-based.
For data set [7], the system named is Rattus norvegicus. Kind of data set: Catalepsy in orally dosed Wistar rat after 30 mins. The class given is functional.

Active and inactive are the calls of the source. No cut-off for these calls is given here.

D(3) dopamine receptor, sequence (P19020 whole entry): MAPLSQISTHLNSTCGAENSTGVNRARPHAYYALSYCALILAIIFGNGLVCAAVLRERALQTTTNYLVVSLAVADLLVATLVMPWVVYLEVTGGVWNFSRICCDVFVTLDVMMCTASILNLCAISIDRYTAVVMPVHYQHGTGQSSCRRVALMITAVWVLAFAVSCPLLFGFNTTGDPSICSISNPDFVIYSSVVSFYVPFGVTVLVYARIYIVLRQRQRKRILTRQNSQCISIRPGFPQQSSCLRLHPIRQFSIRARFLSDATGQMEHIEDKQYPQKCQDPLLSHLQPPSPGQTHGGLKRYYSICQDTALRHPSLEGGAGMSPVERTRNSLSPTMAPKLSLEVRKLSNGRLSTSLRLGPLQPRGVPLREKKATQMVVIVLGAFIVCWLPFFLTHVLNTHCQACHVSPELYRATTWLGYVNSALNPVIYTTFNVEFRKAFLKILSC

One may read the IC50 as the concentration needed to halve the response being measured. Lower therefore signals inhibition by little substance. Consider `O=S(=O)(N[C@H]1CC[C@H](CCN2CCC(Nc3cc(Cl)ccc3Cl)CC2)CC1)c1ccc(F)cc1`, for which the IC50 at D(3) dopamine receptor was found to be 2 nM; on D(2) dopamine receptor it was 9 nM.

`N#Cc1cc(N2CCN(CC[C@H]3CC[C@H](NS(=O)(=O)c4cccc(C#N)c4)CC3)CC2)cc(C(F)(F)F)c1`: the IC50 turned out to be 5.8 nM at D(3) dopamine receptor and 23 nM at D(2) dopamine receptor.

For the compound `Cc1ccc(S(=O)(=O)N[C@H]2CC[C@H](CCN3CCN(c4cc(C#N)cc(C(F)(F)F)c4)CC3)CC2)cn1`, the IC50 worked out at 4.2 nM at D(3) dopamine receptor and 39 nM at D(2) dopamine receptor.

Broadly, the ED50 is the midpoint of the dose-response relation. Turning to `O=C1CCc2ccc(OCCCCN3CCN(c4cccc(Cl)c4Cl)CC3)cc2N1` [ARIPIPRAZOLE], the ED50 in the data set on Rattus norvegicus [1] stood at 17.9 mg/kg.

On to `N#Cc1cc(N2CCN(CC[C@H]3CC[C@H](NS(=O)(=O)c4ccc5c(c4)CCC(=O)N5)CC3)CC2)cc(C(F)(F)F)c1`, for which the IC50 came out at 0.7 nM at D(3) dopamine receptor and 30 nM at D(2) dopamine receptor.

As to `O=S(=O)(N[C@H]1CC[C@H](CCN2CCC(Cc3cccc(C(F)(F)F)c3)CC2)CC1)c1ccc(Cl)cc1`, the IC50 stood at 3.8 nM on D(3) dopamine receptor and 41 nM at D(2) dopamine receptor.

Consider `Cc1cc2c(s1)Nc1ccccc1N=C2N1CCN(C)CC1` [OLANZAPINE], for which the ED50 with Rattus norvegicus [1] is 3.9 mg/kg.

On to `O=C1COc2ccc(S(=O)(=O)N[C@H]3CC[C@H](CCN4CCC(Oc5cccc(C(F)(F)F)c5)CC4)CC3)cc2N1`, for which the IC50 at D(3) dopamine receptor was found to be 1 nM; at D(2) dopamine receptor, 5.3 nM.

Regarding `COc1ccc(S(=O)(=O)N[C@H]2CC[C@H](CCN3CCN(c4ccc(Br)cc4OC)CC3)CC2)cc1`, the concentration for half-maximal inhibition (IC50) worked out at 0.5 nM at D(3) dopamine receptor and 28 nM at D(2) dopamine receptor.

Consider `O=S(=O)(N[C@H]1CC[C@H](CCN2CCC(Cc3cccc(C(F)(F)F)c3)CC2)CC1)c1cc2ccccc2s1`, for which the IC50 at D(3) dopamine receptor stood at 2.6 nM; at D(2) dopamine receptor it was 91 nM.

For orientation: Cmax means the highest concentration seen after dosing. A word on the Tmax: it is the time at which the peak concentration occurs. Broadly, the bioavailability is dose-corrected exposure relative to a reference, in per cent. A high value points to much systemic uptake. Take `N#Cc1cc(N2CCN(CC[C@H]3CC[C@H](NS(=O)(=O)c4cccnc4)CC3)CC2)cc(C(F)(F)F)c1`: the peak concentration (Cmax) in [2] turned out to be 921 ng/mL. Also, the IC50 at D(3) dopamine receptor amounted to 0.4 nM; on D(2) dopamine receptor it was 24 nM. In data set [3], the Tmax worked out at 1 h. The outcome in data set [4] and in data set [5] was Active. The ED50 turned out to be 22 mg/kg in the data set with Mus musculus and 11.6 mg/kg in the data set with Rattus norvegicus [1]. For the same compound, the bioavailability in data set [6] was determined as 55%. In addition, in the data set with Rattus norvegicus [7], the MED was >200 mg/kg.

Turning to `O=S(=O)(N[C@H]1CC[C@H](CCN2CCC(Cc3cccc(C(F)(F)F)c3)CC2)CC1)c1ccc(-n2cccn2)cc1`, the IC50 on D(3) dopamine receptor was determined as 0.5 nM; at D(2) dopamine receptor, 4.3 nM.

Consider `COc1ccc(S(=O)(=O)N[C@H]2CC[C@H](CCN3CCN(c4cccc(C#N)c4)CC3)CC2)cc1OC`, for which the half-inhibitory concentration (IC50) on D(3) dopamine receptor is 0.7 nM; on D(2) dopamine receptor it was 57 nM.

As to `N#Cc1cc(N2CCN(CC[C@H]3CC[C@H](NS(=O)(=O)c4ccc(Br)cc4)CC3)CC2)cc(C(F)(F)F)c1`, the IC50 was determined as 3.3 nM on D(3) dopamine receptor and 26 nM on D(2) dopamine receptor.

For the compound `O=S(=O)(N[C@H]1CC[C@H](CCN2CCN(c3cccc(Cl)c3Cl)CC2)CC1)c1cccnc1`, the IC50 on D(3) dopamine receptor is 0.2 nM; on D(2) dopamine receptor, 4 nM.

As for `CC(=O)Nc1ccc(S(=O)(=O)N[C@H]2CC[C@H](CCN3CCN(c4cc(C#N)cc(C(F)(F)F)c4)CC3)CC2)cc1`, the IC50 on D(3) dopamine receptor was 0.9 nM; at D(2) dopamine receptor, 39 nM.
